Measurements reported in patent US12012628B2, “Method to elevate the amount of steviol glycosides remained in the recrystallization mother liquor of Stevia extract” (Jiangnan University, priority 2018, dated 2024).
Where two headings read alike, the source gives them in different places. One block for each compound: values may come before it.

Legend:
[1] = n-butyl alcohol/water partition coefficients of steviol glycosides; type: physicochemical
Description: The n-butyl alcohol/water partition coefficients of several major steviol glycosides in the mother liquor glycosides are shown in Table 1. It can be seen in Table 1 that the polarity difference between rebaudioside A and rebaudioside C and rubusoside is far larger than the polarity difference between rebaudioside A and rebaudioside C and stevioside; and thus, after stevioside is converted into rubusoside, rebaudioside A and rebaudioside C can be separated out of a mixture more easily than before.

[2] = tested on: lactase from Kluyveromyces fragilis (ATCC 8554); test: Lactase-catalysed hydrolysis of steviol glycosides, HPLC analysis of the reaction mixture; type: biochemical
Experimental: A standard curve is drawn with rebaudioside A (HPLC 99%) as a standard sample, concentrations of rebaudioside A, stevioside and rubusoside are figured out through the standard curve of rebaudioside A by means of an analysis and detection method of steviol glycosides in JECFA2016.
A conversion rate calculation formula of stevioside: α=[(C0−Ct)/C0]×100% (1)
(§1) 250 g/L glycoside liquid is prepared with deionized water from Stevia sugar (containing 22% of rebaudioside A, 68% of stevioside and 3% of rebaudioside C in percentages by mass). The lactase freeze-dried powder obtained in Example 1 is added to reach an enzyme concentration of 60 U/g stevioside for reaction at 35° C. for 2 h.
as §1, with “of 150” for “of 60”, “for 24” for “for 2”
100 g/L glycoside liquid is prepared from the Stevia mother liquor glycosides (containing 47% of rebaudioside A, 19% of stevioside and 7% of rebaudioside C in percentages by mass). The lactase freeze-dried powder obtained in Example 1 is added to reach an enzyme concentration of 30 U/g stevioside for reaction at 25° C. for 0.5 h. […] It can be seen that a conversion rate of stevioside will drop at a low temperature, a low enzyme concentration and a short reaction time.
A 200 g/L stevioside solution is prepared by dissolving 20 g of stevioside (97%, HPLC) in 100 mL of deionized water into a reactor. The lactase freeze-dried powder obtained in Example 1 is added to reach an enzyme concentration of 90 U/g stevioside for reaction at 35° C. for 2 h.
The lactase freeze-dried powder obtained in Example 1 is added to a mixed glycoside solution (50% of stevioside and 50% of rebaudioside A) with a solid content of 200 g/L to reach an enzyme concentration of 200 U/g stevioside, stirred at 35° C. for 2 h.
A 10 g/L rebaudioside A solution is prepared by dissolving 1 g of rebaudioside A (99%, HPLC) in 100 mL of deionized water and preheated for 30 min at 30° C. The lactase freeze-dried powder obtained in Example 1 is added to reach an enzyme concentration of 100 U/g rebaudioside A for reaction for 24 h at 30° C.

[3] = biological target: lactase from Aspergillus niger (ATCC 9029) (Aspergillus niger, UniProt P29853); test: Hydrolysis of stevioside in Stevia sugar by lactase, HPLC; type: biochemical; details: Stevia sugar 450 g/L, pH5 buffer; 100 U/g stevioside; 30° C., 2 h
Chain of lactase from Aspergillus niger (ATCC 9029) (P29853 20-1006): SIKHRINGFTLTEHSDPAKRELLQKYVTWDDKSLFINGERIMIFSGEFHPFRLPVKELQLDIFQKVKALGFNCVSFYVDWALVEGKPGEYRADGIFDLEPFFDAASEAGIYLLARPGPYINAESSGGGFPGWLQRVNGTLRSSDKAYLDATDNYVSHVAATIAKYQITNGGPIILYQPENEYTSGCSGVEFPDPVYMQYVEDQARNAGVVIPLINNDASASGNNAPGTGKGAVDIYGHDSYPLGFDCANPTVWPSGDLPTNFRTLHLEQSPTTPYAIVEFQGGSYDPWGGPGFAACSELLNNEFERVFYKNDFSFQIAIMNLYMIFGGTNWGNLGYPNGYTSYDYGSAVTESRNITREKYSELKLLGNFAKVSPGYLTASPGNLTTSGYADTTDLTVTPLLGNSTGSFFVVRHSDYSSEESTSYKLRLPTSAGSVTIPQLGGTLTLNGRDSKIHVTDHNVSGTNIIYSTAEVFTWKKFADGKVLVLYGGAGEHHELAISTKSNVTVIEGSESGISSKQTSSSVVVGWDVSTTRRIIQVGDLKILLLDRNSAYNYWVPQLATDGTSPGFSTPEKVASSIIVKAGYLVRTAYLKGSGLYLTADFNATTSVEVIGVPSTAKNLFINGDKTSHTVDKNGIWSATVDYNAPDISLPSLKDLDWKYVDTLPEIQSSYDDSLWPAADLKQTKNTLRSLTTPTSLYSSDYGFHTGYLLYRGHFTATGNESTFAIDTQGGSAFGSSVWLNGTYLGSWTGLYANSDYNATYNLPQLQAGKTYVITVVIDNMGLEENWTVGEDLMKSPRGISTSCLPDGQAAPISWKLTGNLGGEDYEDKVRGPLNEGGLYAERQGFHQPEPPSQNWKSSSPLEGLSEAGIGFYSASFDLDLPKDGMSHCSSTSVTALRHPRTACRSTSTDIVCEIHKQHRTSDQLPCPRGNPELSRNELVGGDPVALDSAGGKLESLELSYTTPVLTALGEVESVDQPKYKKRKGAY
Experimental: (§2) 450 g/L glycoside liquid is prepared with a pH5 phosphate-potassium phosphate buffer solution (50 mmol/L) from Stevia sugar (containing 22% of rebaudioside A, 68% of stevioside and 3% of rebaudioside C in percentages by mass). The lactase from Aspergillus niger (ATCC® 9029™) is added to reach an enzyme concentration of 100 U/g stevioside for reaction at 30° C. for 2 h.

[4] = biological target: T1, lactase (Maxilact LG 2000) from Kluyveromyces lactis (Kluyveromyces lactis, UniProt P00723); test: Hydrolysis of stevioside in Stevia sugar by commercial lactase, HPLC; type: biochemical; details: Stevia sugar 450 g/L, pH5 buffer, 100 U/g stevioside, 30° C.
T1 construct: purchased Royal DSM Maxilact LG 2000
T1 sequence (P00723 whole entry): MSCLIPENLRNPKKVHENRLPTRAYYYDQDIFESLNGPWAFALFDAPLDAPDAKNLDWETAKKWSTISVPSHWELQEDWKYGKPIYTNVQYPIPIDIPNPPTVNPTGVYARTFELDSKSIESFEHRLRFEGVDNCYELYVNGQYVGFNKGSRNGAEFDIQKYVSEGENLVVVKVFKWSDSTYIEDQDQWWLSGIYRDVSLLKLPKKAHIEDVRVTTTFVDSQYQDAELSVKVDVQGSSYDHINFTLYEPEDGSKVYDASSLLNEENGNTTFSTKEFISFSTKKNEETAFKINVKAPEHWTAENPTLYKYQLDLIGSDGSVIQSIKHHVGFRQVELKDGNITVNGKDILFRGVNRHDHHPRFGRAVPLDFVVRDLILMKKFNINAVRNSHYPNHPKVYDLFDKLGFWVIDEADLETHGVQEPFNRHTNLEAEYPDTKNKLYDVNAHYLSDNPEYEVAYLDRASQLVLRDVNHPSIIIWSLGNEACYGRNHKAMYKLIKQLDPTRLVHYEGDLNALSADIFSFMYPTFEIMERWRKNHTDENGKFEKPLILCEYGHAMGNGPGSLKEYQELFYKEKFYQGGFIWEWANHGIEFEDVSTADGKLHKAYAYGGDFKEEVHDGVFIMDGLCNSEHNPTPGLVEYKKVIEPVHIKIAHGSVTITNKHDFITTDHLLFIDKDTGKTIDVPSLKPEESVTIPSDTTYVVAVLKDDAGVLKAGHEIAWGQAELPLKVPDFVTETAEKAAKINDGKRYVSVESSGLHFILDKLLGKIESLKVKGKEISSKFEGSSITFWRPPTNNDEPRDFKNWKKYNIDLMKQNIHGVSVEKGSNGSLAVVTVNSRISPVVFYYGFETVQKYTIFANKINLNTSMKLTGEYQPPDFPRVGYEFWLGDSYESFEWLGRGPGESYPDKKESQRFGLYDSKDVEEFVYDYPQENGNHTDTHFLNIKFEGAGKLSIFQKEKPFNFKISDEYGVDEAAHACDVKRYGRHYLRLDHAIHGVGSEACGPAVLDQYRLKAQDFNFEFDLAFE
Experimental: 450 g/L glycoside liquid is prepared with a pH5 phosphate-potassium phosphate buffer solution (50 mmol/L) from Stevia sugar (containing 22% of rebaudioside A, 68% of stevioside and 3% of rebaudioside C in percentages by mass). […]

[5] = biological target: T2, lactase (Lactozym Pure 7500 L) (Kluyveromyces lactis, UniProt P00723); test: as above; type: biochemical; details: Stevia sugar 450 g/L, pH5 buffer; 100 U/g stevioside; 30° C., 2 h
T2 construct: purchased Novozymes Lactozym Pure 7500 L
T2 sequence (P00723 whole entry): as above
Experimental: as §2, with “lactase (Lactozym Pure 7500 L, purchased” for “lactase”, “Novozymes company in China)” for “Aspergillus niger (ATCC® 9029™)”

[6] = biological target: T3, lactase (Lactozym 3000 L HP-G) from Kluyveromyces lactis (Kluyveromyces lactis, UniProt P00723); test: as above; type: biochemical; details: Stevia sugar 450 g/L, pH5 buffer; 100 U/g stevioside; 30° C., 2 h
T3 construct: purchased Novozymes Lactozym 3000 L HP-G
T3 sequence (P00723 whole entry): as above
Experimental: as §2, with “lactase (trade name: Lactozym 3000 L HP-G, purchased” for “lactase”, “Novozymes company in China) from Kluyveromyces lactis” for “Aspergillus niger (ATCC® 9029™)”

- n-butyl alcohol/water partition coefficients [1]: 0.2
Compound: rebaudioside C

- reaction of rebaudioside A with lactase ([2]; 10 g/L rebaudioside A, 100 U/g rebaudioside A, 30° C., 24 h): did not react
- reaction of rebaudioside A with lactase in mixture with stevioside ([2]; 50 wt % rebaudioside A + 50 wt % stevioside, 200 U/g stevioside, 2 h (FIG. 4A)): does not react
- n-butyl alcohol/water partition coefficients [1]: 0.09
Compound: C=C1C[C@@]23CC[C@H]4[C@@](C)(CCC[C@@]4(C)C(=O)O[C@@H]4O[C@H](CO)[C@@H](O)[C@H](O)[C@H]4O)[C@@H]2CC[C@]1(O[C@@H]1O[C@H](CO)[C@@H](O)[C@H](O[C@@H]2O[C@H](CO)[C@@H](O)[C@H](O)[C@H]2O)[C@H]1O[C@@H]1O[C@H](CO)[C@@H](O)[C@H](O)[C@H]1O)C3 [rebaudioside A]

Compound: C=C1C[C@@]23CC[C@H]4[C@@](C)(CCC[C@@]4(C)C(=O)O[C@@H]4O[C@H](CO)[C@@H](O)[C@H](O)[C@H]4O)[C@@H]2CC[C@]1(O[C@@H]1O[C@H](CO)[C@@H](O)[C@H](O)[C@H]1O[C@@H]1O[C@H](CO)[C@@H](O)[C@H](O)[C@H]1O)C3 [stevioside]
- conversion rate of stevioside ([2]; 50% stevioside + 50% rebaudioside A, 200 g/L, 200 U/g stevioside, 35° C., 2 h): 99.5%
- conversion rate of stevioside ([2]; 200 g/L stevioside (97%) solution, 90 U/g stevioside, 35° C., 2 h): 98.9%
- conversion rate of stevioside ([2]; Stevia mother liquor glycosides 100 g/L (19% stevioside), 30 U/g stevioside, 25° C., 0.5 h): 72.7%
- conversion rate of stevioside ([2]; Stevia sugar 250 g/L (68% stevioside), 60 U/g stevioside, 35° C., 2 h): 98.3%
- conversion rate of stevioside ([2]; Stevia sugar 250 g/L (68% stevioside), 150 U/g stevioside, 35° C., 24 h): 99.5%
- n-butyl alcohol/water partition coefficients ([1]; n-butyl alcohol/water): 0.36
- content of stevioside in the reaction mixture [3]: no change
- conversion of stevioside ([4]; 2 h): not converted
- product of the reaction of stevioside ([4]; 20 h): steviolbioside is produced
- conversion of stevioside [5]: not converted
- conversion of stevioside [6]: not converted

- n-butyl alcohol/water partition coefficients [1]: 3.5
Compound: C=C1C[C@@]23CC[C@H]4[C@@](C)(CCC[C@@]4(C)C(=O)O[C@@H]4O[C@H](CO)[C@@H](O)[C@H](O)[C@H]4O)[C@@H]2CC[C@]1(O[C@@H]1O[C@H](CO)[C@@H](O)[C@H](O)[C@H]1O)C3 [rubusoside]
